From patent publication US8828932B2, “Bifunctional molecules for inactivating HIV and blocking HIV entry” (New York Blood Center, Inc., priority 2010, dated 2014)

Columns and labels:
[1] = test system: HIV-1 IIIB chronically infected H9 cells / MT-2 cells; type: cell-based
Description: HIV-1-mediated cell-cell fusion was determined by a dye transfer assay (Lu H et al. J Virol Methods 107:155-161, 2003.) using Calcein AM-labeled HIV-1IIIB chronically infected H9 (H9/HIV-1 IIIB) cells as effector cells and MT-2 cells as target cells.

HIV-1 IIIB (B, X4) [2] = test system: HIV-1 IIIB (B, X4)
Description: The inhibitory activity of the bifunctional molecule on HIV-1 IIIB infection was determined by ELISA for p24 production (Jiang S et al. J Exp Med 174:1557-1563, 1991). Briefly, MT-2 cells were infected with HIV-1IIIB at 100 TCID50 (50% tissue culture infective dose) in RPMI 1640 medium containing 10% FBS in the presence or absence of an antigen specific antiserum or IgG antibody in serial 2-fold dilutions at 37° C. overnight. The culture supernatants were then removed and fresh media were added. On day 4 post-infection, the culture supernatants were collected and mixed with equal volumes of 5% TRITON™ X-100 for the detection in the p24 protein ELISA.

HIV-1 Bal (B, R5) [3] = type: cell-based
Description: The cells were harvested and lysed on the fourth day post-infection with 50 μl of lysing reagent. The luciferase activity was analyzed using a luciferase kit (Promega) and a luminometer (Ultra 386, Tecan) according to the manufacturer's instruction. The percent inhibition of luciferase activity was calculated.

92US657 (B, R5) = type: cell-based, HIV-1
Description: (§1) The inhibitory activity of the bifunctional molecule on infection by primary HIV-1 isolates, 92US657 (B, R5), 94UG103 (A, X4R5), 93MW959 (C, R5), RU570 (G, R5) and 92TH009 (E/A, R5) was determined (Jiang S et al. Antimicrob Agents Chemother 48:4349-4359, 2004). Briefly, peripheral blood mononuclear cells (PBMCs) were isolated from the blood of healthy donors using a standard density gradient (Histopaque-1077, Sigma) centrifugation. After incubation at 37° C. for 2 hr, the nonadherent cells were collected and resuspended at 5×10^5/ml in RPMI 1640 medium containing 10% FBS, 5 μg of phytohemagglutinin (PHA)/ml, and 100 U of IL-2/ml, followed by incubation at 37° C. for 3 days. The PHA-stimulated cells were infected with the corresponding primary HIV-1 isolates at a multiplicity of infection (MOI) of 0.01 in the absence or presence of antisera at a serial 2-fold dilution. The supernatants were collected 7 days post-infection and tested for p24 antigen by ELISA as described above. The IC50 was calculated using the […]™ software as described above.

93MW959 (C, R5) = type: cell-based, HIV-1
Description: as §1

94UG103 (A, X4R5) = type: cell-based, HIV-1
Description: as §1

RU570 (G, R5) = type: cell-based, HIV-1
Description: as §1

92TH009 (E/A, R5) = assay: Primary HIV-1 isolate infection of PBMCs, p24 ELISA; type: cell-based
Description: as §1

HIV-1 IIIB (B, X4) [4] = assay: Inactivation of cell-free virus, PEG 6000 precipitation, MT-2 cells, p24; type: cell-based; conditions: FIG. 17, MT-2 cells
Description: (§2) Briefly, HIV-1 isolate (500 TCID50/ml) was added to 100 μl of the samples with different concentration and incubate on 4° C. for 1 hour. Then, PEG 6000 was added to the final concentration of 3% and centrifuge on a microfuge at 15,000 rpm for 30 min. The supernatants were removed, and the pellet was washed with PBS and resuspended to 100 μl. MT-2 or TZM-bl cells (1×10^5/ml) were added at 100 μl/well, and cultured at 37° C. for 3 days. p24 production in MT-2 or luciferase activity was determined according to kit manufacturer' instruction.

HIV-1 Bal (B, R5) [5] = assay: Inactivation of cell-free virus, PEG 6000 precipitation, TZM-bl cells, luciferase; type: cell-based; conditions: FIG. 18, luciferase
Description: as §2

Substance: enfuvirtide
- IC50 [1]: 20.1 nM
- IC90 [1]: 41.7 nM
- IC50 (HIV-1 IIIB (B, X4) [2]): 17.3 nM
- IC90 (HIV-1 IIIB (B, X4) [2]): 117 nM
- IC50 (HIV-1 Bal (B, R5) [3]): 43.4 nM
- IC90 (HIV-1 Bal (B, R5) [3]): > 250 nM
- IC50 (92US657 (B, R5)): 56.1 nM
- IC90 (92US657 (B, R5)): 224 nM
- IC50 (93MW959 (C, R5)): 4.7 nM
- IC90 (93MW959 (C, R5)): 18.8 nM
- IC50 (94UG103 (A, X4R5)): 6.67 nM
- IC90 (94UG103 (A, X4R5)): 29.4 nM
- IC50 (RU570 (G, R5)): 44.1 nM
- IC90 (RU570 (G, R5)): 110 nM
- IC50 (92TH009 (E/A, R5); read-out: IC50, HIV-1 replication 92TH009 (E/A, R5)): 1.43 nM
- IC90 (92TH009 (E/A, R5); read-out: IC90, HIV-1 replication 92TH009 (E/A, R5)): 7.99 nM
- virus inactivation activity, HIV-1 IIIB (HIV-1 IIIB (B, X4) [4]): no significant effects on virus
- virus inactivation activity, HIV-1 Bal (HIV-1 Bal (B, R5) [5]): no significant effects on virus
